In test [1] the target is Carboxylic ester hydrolase (Equus caballus, UniProt Q9N1N9). Description: Acetylcholinesterase Inhibition Assay. The settings on record: pH 8; 30 °C. The procedure: (§1) The assay was carried out according to the Ellman method [Ellman et al., Biochem. Pharmacol., 7:88-95], optimized for 96-well microplates using a Tecan Sunrise™ absorbance reader. […] For the blank, 50 μL of 0.26 U mL^−1 AChE was replaced by the same volume of 0.1 M phosphate buffer pH 8.0. In a typical assay, solutions of AChE, DTNB, and the compound to be tested, as well as the phosphate buffer, were mixed and incubated for 30 min at 30°C. Next, the reaction was started by the addition of ATCI solution. […] Reaction velocities were determined from the slopes of the linear portions of the graphs of time versus concentration of 5-thio-2-nitrobenzoate. All assays were done in triplicate.

The target in the next test is Acetylcholinesterase (Electrophorus electricus, UniProt O42275). Description: Acetylcholinesterase Inhibition Assay. The settings on record: pH 8; 30 °C. Here is the method: as §1

pIC50: −log10 of the molar value.

The values that follow come from BindingDB's records for doi:10.3109/14756360903213481 (Brno University of Technology, 2010).

Sequence of Carboxylic ester hydrolase (Q9N1N9 whole entry): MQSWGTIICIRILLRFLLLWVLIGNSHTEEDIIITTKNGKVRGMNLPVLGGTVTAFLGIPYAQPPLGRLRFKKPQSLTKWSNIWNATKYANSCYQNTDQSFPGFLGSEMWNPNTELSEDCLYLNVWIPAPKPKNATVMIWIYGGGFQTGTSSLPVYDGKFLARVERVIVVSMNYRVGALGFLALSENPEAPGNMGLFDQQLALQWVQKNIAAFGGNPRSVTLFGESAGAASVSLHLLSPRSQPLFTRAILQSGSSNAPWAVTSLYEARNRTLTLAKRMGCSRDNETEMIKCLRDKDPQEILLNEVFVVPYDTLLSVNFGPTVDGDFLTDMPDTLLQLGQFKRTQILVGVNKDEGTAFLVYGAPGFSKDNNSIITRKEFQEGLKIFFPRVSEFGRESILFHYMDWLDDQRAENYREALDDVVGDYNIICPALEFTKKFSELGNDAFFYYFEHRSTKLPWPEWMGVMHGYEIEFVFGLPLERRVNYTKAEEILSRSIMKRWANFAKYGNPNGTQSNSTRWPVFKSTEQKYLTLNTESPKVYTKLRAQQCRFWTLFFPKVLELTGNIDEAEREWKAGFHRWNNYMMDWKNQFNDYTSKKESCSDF
Sequence of Acetylcholinesterase (O42275 whole entry): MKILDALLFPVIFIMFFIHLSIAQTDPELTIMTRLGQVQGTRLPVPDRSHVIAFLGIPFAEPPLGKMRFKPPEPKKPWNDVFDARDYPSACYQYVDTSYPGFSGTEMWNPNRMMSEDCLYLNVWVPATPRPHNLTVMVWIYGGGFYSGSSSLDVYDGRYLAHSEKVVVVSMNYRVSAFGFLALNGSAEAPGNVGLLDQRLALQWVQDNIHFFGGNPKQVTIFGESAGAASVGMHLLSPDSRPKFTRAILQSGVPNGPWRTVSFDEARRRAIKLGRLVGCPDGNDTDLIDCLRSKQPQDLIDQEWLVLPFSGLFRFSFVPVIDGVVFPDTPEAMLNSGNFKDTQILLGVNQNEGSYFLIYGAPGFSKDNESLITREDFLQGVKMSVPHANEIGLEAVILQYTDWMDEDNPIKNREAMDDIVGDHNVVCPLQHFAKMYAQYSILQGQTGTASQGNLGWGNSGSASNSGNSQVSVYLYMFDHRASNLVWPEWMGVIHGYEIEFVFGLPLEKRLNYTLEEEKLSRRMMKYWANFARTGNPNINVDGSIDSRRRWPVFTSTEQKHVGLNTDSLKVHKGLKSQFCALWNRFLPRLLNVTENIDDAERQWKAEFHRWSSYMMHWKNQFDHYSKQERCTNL

In the case of `O=C1C(Cc2ccc(O)cc2)=C(Cc2ccc(O)cc2)C(=O)C1(c1ccc(O)cc1)C1(c2ccc(O)cc2)C(=O)C(Cc2ccc(O)cc2)=C(Cc2ccc(O)cc2)C1=O` [Nostotrebin 6], the figures for the pIC50 (in test [1]; at Acetylcholinesterase) were 5.17 and 5.26, respectively.
For the compound `COc1ccc2c3c1O[C@H]1C[C@@H](O)C=C[C@@]31CCN(C)C2` [galantamine], the negative-log IC50 (pIC50) in test [1] is 4.63.
